Activity calls are given as the source filed them. No cut-off for these calls is given here.
Experiments:
[1] = target: T1, Serine/threonine-protein kinase Chk1 (Homo sapiens) (UniProt O14757); test: Inhibition of hydroxyurea-induced CHK1 phosphorylation at S296 residue in human HCT116 cells at 20 uM treated for 8 hrs starting from 24 hrs post hydroxyurea addition by Western blot analysis; type: cell-based
T1 sequence (whole entry): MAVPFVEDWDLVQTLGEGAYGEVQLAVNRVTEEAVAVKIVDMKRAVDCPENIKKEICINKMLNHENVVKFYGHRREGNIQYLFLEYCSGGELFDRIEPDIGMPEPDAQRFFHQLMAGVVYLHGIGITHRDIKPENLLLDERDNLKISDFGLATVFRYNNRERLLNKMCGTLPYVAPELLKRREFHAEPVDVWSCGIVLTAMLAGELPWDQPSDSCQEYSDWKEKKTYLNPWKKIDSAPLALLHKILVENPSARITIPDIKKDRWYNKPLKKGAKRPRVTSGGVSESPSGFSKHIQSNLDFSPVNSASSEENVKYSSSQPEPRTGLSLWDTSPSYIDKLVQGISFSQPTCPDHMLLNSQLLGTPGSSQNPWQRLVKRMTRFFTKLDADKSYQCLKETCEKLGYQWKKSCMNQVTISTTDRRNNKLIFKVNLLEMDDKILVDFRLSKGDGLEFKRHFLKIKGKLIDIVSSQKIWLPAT

[2] = target: Aurora kinase B (Homo sapiens) (UniProt Q96GD4); test: Inhibition of human Aurora B assessed as residual activity at 1 uM using [H-LRRASLG] as substrate by [gamma-33P]-ATP assay relative to control
[3] = target: Dual specificity mitogen-activated protein kinase kinase 7 (Homo sapiens) (UniProt O14733); test: Inhibition of human MKK7 assessed as residual activity at 1 uM using JNK as substrate by [gamma-33P]-ATP assay relative to control
[4] = target: MAP kinase-interacting serine/threonine-protein kinase 1 (Homo sapiens) (UniProt Q9BUB5); test: Inhibition of human MNK1 assessed as residual activity at 1 uM using MBP as substrate by [gamma-33P]-ATP assay relative to control
[5] = target: Serine/threonine-protein kinase Nek2 (Homo sapiens) (UniProt P51955); test: Inhibition of human NEK2 assessed as residual activity at 1 uM using MBP as substrate by [gamma-33P]-ATP assay relative to control
[6] = target: Mitogen-activated protein kinase 12 (Homo sapiens) (UniProt P53778); test: Inhibition of human p38gamma assessed as residual activity at 1 uM using MBP as substrate by [gamma-33P]-ATP assay relative to control
[7] = target: Dual serine/threonine and tyrosine protein kinase (Homo sapiens) (UniProt Q6XUX3); test: Inhibition of human RIPK5 assessed as residual activity at 1 uM using MBP as substrate by [gamma-33P]-ATP assay relative to control
[8] = target: Macrophage-stimulating protein receptor (Homo sapiens) (UniProt Q04912); test: Inhibition of human RON assessed as residual activity at 1 uM using KKSRGDYMTMQIG as substrate by [gamma-33P]-ATP assay relative to control
[9] = target: Serine/threonine-protein kinase Sgk1 (Homo sapiens) (UniProt O00141); test: Inhibition of human SGK1 assessed as residual activity at 1 uM using KGSGSGRPRTSSFAEG as substrate by [gamma-33P]-ATP assay relative to control
[10] = target: Citron Rho-interacting kinase (Homo sapiens) (UniProt O14578); test: Inhibition of human STK21 assessed as residual activity at 1 uM using MBP as substrate by [gamma-33P]-ATP assay relative to control
[11] = target: TRAF2 and NCK-interacting protein kinase (Homo sapiens) (UniProt Q9UKE5); test: Inhibition of human TNIK assessed as residual activity at 1 uM using RLGRDKYKTLRQIRQ as substrate by [gamma-33P]-ATP assay relative to control
[12] = target: Serine/threonine-protein kinase ULK3 (Homo sapiens) (UniProt Q6PHR2); test: Inhibition of human ULK3 assessed as residual activity at 1 uM using MBP as substrate by [gamma-33P]-ATP assay relative to control
[13] = target: Tyrosine-protein kinase Blk (Homo sapiens) (UniProt P51451); test: Inhibition of human BLK assessed as residual activity at 1 uM using poly[Glu:Tyr](4:1) as substrate by [gamma-33P]-ATP assay relative to control
[14] = target: CDK6/cyclin D1 (Homo sapiens) (UniProt P24385+Q00534); test: Inhibition of human CDK6/cyclin-D1 assessed as residual activity at 1 uM using RB protein as substrate by [gamma-33P]-ATP assay relative to control; type: protein-complex assay
[15] = target: Dual specificity protein kinase CLK2 (Homo sapiens) (UniProt P49760); test: Inhibition of human CLK2 assessed as residual activity at 1 uM using MBP as substrate by [gamma-33P]-ATP assay relative to control
[16] = target: Death-associated protein kinase 1 (Homo sapiens) (UniProt P53355); test: Inhibition of human DAPK1 assessed as residual activity at 1 uM using KKLNRTLSFAEPG as substrate by [gamma-33P]-ATP assay relative to control
[17] = target: Ephrin type-A receptor 6 (Homo sapiens) (UniProt Q9UF33); test: Inhibition of human EPHA6 assessed as residual activity at 1 uM using poly[Glu:Tyr] (4:1) as substrate by [gamma-33P]-ATP assay relative to control
[18] = target: Serine/threonine-protein kinase MARK2 (Homo sapiens) (UniProt Q7KZI7); test: Inhibition of human MARK2 assessed as residual activity at 1 uM using KKKVSRSGLYRSPSMPENLNRPR as substrate by [gamma-33P]-ATP assay relative to control
[19] = target: Maternal embryonic leucine zipper kinase (Homo sapiens) (UniProt Q14680); test: Inhibition of human MELK assessed as residual activity at 1 uM using KKLNRTLSFAEPG as substrate by [gamma-33P]-ATP assay relative to control
[20] = target: PAS domain-containing serine/threonine-protein kinase (Homo sapiens) (UniProt Q96RG2); test: Inhibition of human PASK assessed as residual activity at 1 uM using KKLNRTLSFAEPG as substrate by [gamma-33P]-ATP assay relative to control
[21] = target: Protein kinase C delta type (Homo sapiens) (UniProt Q05655); test: Inhibition of human PKCdelta assessed as residual activity at 1 uM using ERMRPRKRQGSVRRRV as substrate by [gamma-33P]-ATP assay relative to control
[22] = target: Protein kinase C theta type (Homo sapiens) (UniProt Q04759); test: Inhibition of human PKCtheta assessed as residual activity at 1 uM using Histone H1 as substrate by [gamma-33P]-ATP assay relative to control
[23] = target: Proto-oncogene tyrosine-protein kinase receptor Ret (Homo sapiens) (UniProt P07949); test: Inhibition of human RET assessed as residual activity at 1 uM using KKKVSRSGLYRSPSMPENLNRPR as substrate by [gamma-33P]-ATP assay relative to control
Sequence of Proto-oncogene tyrosine-protein kinase receptor Ret (Homo sapiens) (P07949 whole entry): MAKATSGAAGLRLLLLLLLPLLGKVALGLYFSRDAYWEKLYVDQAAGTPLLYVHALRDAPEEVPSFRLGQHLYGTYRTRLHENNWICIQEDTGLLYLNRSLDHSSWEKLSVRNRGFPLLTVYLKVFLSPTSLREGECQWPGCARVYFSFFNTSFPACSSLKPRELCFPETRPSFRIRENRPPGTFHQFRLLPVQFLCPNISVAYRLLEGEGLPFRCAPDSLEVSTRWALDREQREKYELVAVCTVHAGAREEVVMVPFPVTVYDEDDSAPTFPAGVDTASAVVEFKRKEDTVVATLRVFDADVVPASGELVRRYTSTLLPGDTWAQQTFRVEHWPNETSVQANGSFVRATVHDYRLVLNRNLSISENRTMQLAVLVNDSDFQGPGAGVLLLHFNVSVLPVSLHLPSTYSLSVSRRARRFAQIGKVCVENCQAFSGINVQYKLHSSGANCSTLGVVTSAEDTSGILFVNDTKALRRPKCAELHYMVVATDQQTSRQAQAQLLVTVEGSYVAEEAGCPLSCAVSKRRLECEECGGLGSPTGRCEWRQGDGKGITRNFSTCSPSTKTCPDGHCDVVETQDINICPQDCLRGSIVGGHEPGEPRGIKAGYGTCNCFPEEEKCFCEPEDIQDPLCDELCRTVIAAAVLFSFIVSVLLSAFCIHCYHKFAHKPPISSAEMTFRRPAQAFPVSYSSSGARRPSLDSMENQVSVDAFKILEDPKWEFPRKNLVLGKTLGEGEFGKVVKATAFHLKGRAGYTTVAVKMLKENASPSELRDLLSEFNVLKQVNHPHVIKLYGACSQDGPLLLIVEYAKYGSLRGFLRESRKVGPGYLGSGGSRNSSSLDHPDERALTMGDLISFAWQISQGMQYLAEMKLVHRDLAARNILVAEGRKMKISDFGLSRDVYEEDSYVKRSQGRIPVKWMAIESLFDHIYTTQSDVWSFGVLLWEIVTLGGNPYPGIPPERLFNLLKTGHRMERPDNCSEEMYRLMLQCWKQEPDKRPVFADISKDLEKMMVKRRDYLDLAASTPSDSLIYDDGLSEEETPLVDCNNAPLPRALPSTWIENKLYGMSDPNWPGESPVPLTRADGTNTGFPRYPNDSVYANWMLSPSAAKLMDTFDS

Sequence of Dual specificity mitogen-activated protein kinase kinase 7 (Homo sapiens) (O14733 whole entry): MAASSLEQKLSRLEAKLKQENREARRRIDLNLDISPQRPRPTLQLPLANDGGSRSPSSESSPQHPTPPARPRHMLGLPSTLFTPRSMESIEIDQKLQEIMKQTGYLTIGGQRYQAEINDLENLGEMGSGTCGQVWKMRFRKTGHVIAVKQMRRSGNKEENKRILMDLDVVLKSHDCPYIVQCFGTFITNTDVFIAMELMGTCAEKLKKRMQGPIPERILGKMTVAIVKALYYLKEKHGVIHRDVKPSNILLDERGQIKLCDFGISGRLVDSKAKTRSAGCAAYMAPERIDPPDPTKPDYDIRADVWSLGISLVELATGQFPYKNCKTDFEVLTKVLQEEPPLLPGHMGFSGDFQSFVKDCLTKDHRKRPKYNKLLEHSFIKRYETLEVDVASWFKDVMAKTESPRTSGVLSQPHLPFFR
Sequence of Aurora kinase B (Homo sapiens) (Q96GD4 whole entry): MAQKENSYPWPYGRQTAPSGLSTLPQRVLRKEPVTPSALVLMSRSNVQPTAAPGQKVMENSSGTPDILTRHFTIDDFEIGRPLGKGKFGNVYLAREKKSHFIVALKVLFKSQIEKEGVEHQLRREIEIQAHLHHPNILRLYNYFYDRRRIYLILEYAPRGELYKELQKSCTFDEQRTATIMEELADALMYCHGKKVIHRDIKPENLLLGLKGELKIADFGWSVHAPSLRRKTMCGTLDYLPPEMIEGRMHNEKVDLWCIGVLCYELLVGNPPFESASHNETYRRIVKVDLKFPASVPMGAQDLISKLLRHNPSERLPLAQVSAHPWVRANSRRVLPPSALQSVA
Sequence of Protein kinase C theta type (Homo sapiens) (Q04759 whole entry, looked up): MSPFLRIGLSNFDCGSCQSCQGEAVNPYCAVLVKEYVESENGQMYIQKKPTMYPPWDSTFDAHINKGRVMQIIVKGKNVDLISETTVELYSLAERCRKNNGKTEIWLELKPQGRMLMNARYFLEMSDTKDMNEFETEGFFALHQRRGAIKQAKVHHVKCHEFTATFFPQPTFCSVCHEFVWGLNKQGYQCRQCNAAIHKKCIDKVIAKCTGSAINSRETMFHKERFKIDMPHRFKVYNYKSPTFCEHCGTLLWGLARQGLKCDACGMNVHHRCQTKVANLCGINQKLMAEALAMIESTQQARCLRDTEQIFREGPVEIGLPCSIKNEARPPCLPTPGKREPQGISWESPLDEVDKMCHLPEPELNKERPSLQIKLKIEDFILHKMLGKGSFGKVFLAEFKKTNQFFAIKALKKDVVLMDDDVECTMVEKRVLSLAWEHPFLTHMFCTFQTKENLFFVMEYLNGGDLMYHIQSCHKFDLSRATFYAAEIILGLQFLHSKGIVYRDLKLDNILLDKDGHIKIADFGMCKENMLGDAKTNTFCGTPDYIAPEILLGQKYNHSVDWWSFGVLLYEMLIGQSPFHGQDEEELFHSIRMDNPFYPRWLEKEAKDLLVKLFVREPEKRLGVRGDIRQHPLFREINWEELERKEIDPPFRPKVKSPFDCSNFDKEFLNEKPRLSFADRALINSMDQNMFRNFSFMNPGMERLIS
Sequence of MAP kinase-interacting serine/threonine-protein kinase 1 (Homo sapiens) (Q9BUB5 whole entry, looked up): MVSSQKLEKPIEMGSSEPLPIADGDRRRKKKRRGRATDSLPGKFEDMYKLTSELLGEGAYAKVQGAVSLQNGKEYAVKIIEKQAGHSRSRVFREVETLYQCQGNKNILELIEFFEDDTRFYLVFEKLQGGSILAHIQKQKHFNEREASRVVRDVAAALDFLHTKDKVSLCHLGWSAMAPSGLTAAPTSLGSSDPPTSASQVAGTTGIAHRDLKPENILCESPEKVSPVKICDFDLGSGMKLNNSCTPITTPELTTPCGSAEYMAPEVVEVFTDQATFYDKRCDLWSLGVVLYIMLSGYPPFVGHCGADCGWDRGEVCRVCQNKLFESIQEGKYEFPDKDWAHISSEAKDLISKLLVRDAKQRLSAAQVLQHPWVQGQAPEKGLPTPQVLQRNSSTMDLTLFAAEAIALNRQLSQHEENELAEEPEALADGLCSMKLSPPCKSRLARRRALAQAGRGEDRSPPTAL
Sequence of Mitogen-activated protein kinase 12 (Homo sapiens) (P53778 whole entry): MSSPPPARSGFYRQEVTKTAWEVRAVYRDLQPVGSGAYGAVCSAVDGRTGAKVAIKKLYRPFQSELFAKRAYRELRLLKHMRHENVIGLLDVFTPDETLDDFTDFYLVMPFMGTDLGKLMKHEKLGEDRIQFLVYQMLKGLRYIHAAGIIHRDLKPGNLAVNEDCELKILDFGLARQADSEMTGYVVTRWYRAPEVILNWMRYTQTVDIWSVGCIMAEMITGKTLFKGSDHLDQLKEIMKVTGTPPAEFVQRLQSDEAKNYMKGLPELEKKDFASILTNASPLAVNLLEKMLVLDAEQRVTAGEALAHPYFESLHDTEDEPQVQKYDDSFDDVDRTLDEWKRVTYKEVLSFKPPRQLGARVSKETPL
Sequence of Serine/threonine-protein kinase Nek2 (Homo sapiens) (P51955 whole entry): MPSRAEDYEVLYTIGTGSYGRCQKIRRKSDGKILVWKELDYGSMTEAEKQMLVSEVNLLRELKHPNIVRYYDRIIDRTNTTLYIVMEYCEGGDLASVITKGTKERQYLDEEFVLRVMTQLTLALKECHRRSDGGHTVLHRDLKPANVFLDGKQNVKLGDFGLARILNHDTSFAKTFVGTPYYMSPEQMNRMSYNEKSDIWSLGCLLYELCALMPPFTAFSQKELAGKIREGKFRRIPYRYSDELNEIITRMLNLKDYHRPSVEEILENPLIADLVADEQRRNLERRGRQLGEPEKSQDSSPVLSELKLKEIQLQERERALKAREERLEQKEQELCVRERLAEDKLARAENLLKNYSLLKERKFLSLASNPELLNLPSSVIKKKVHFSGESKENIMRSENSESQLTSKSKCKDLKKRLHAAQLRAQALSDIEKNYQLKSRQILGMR
Sequence of Dual specificity protein kinase CLK2 (Homo sapiens) (P49760 whole entry, looked up): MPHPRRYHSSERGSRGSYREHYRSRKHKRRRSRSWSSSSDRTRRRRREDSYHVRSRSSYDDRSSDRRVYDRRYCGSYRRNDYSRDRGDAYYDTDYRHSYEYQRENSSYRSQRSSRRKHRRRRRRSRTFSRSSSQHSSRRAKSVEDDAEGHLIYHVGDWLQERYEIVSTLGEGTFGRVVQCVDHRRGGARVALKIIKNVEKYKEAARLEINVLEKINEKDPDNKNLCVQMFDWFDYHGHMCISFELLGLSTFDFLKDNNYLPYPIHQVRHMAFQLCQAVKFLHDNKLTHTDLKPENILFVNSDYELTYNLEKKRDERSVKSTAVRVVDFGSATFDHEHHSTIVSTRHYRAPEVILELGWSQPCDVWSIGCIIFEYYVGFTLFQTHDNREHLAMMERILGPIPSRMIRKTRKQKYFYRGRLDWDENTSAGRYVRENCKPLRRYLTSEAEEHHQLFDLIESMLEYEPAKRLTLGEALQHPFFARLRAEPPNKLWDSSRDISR
Sequence of Maternal embryonic leucine zipper kinase (Homo sapiens) (Q14680 whole entry, looked up, the tested form may be a part): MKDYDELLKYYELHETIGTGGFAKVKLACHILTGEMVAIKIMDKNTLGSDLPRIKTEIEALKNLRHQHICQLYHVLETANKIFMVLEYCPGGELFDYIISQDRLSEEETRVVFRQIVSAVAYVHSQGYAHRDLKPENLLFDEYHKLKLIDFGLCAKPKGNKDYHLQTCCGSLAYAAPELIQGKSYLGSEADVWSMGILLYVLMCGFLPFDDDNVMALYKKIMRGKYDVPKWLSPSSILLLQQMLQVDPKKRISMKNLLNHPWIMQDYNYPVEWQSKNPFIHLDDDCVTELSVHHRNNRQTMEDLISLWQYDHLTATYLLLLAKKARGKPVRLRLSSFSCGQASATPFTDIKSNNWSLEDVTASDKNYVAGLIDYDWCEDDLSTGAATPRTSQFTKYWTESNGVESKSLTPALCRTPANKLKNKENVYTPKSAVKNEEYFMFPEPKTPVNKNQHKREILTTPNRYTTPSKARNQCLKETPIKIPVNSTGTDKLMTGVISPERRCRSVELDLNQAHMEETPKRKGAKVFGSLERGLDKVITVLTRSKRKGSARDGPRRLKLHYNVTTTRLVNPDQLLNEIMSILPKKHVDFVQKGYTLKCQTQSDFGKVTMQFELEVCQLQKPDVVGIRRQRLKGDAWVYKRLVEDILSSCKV

## C(=C\c1ccccc1)/C[N+]12CN3CN(CN(C3)C1)C2
[1]
  inhibition: Active
[2]
  Activity: 95.1 to 95.4%
[3]
  Activity: 96.4 to 98.9%
[4]
  Activity: 96.3 to 99.7%
[5]
  Activity: 106%
[6]
  Activity: 93.7 to 94.8%
[7]
  Activity: 91 to 92.4%
[8]
  Activity: 93.3 to 94.8%
[9]
  Activity: 93.4 to 94.1%
[10]
  Activity: 92.4 to 95.5%
[11]
  Activity: 89.3 to 93.7%
[12]
  Activity: 90.5 to 93.8%

## ClC/C=C/C[N+]12CN3CN(CN(C3)C1)C2
[13]
  Activity: 93.1 to 94.8%
[14]
  Activity: 97.5 to 97.7%
[15]
  Activity: 93.9 to 94.5%
[16]
  Activity: 119 to 135%
[17]
  Activity: 93.1 to 94%
[18]
  Activity: 94.5%
[19]
  Activity: 93.8 to 96.1%
[20]
  Activity: 94.3 to 95.1%
[21]
  Activity: 115 to 117%
[22]
  Activity: 111 to 115%
[23]
  Activity: 96.4 to 96.7%
